From ChEMBL document CHEMBL5634123, “Design and synthesis of 1H-benzo[d]imidazole selective HDAC6 inhibitors with potential therapy for multiple myeloma” (Eur J Med Chem, 2023)
pIC50: −log10 of the molar value. Active and inactive are the calls of the source. The calls are words filed in the database; no cut-off is given here.

Key:
[1] = biological target: T1, Protein deacetylase HDAC6 (Homo sapiens, UniProt Q9UBN7); assay: Inhibition of HDAC6 (unknown origin) preincubated for 10 mins followed by substrate addition measured for 1 hr by fluorescence based assay
T1 sequence (Q9UBN7 whole entry): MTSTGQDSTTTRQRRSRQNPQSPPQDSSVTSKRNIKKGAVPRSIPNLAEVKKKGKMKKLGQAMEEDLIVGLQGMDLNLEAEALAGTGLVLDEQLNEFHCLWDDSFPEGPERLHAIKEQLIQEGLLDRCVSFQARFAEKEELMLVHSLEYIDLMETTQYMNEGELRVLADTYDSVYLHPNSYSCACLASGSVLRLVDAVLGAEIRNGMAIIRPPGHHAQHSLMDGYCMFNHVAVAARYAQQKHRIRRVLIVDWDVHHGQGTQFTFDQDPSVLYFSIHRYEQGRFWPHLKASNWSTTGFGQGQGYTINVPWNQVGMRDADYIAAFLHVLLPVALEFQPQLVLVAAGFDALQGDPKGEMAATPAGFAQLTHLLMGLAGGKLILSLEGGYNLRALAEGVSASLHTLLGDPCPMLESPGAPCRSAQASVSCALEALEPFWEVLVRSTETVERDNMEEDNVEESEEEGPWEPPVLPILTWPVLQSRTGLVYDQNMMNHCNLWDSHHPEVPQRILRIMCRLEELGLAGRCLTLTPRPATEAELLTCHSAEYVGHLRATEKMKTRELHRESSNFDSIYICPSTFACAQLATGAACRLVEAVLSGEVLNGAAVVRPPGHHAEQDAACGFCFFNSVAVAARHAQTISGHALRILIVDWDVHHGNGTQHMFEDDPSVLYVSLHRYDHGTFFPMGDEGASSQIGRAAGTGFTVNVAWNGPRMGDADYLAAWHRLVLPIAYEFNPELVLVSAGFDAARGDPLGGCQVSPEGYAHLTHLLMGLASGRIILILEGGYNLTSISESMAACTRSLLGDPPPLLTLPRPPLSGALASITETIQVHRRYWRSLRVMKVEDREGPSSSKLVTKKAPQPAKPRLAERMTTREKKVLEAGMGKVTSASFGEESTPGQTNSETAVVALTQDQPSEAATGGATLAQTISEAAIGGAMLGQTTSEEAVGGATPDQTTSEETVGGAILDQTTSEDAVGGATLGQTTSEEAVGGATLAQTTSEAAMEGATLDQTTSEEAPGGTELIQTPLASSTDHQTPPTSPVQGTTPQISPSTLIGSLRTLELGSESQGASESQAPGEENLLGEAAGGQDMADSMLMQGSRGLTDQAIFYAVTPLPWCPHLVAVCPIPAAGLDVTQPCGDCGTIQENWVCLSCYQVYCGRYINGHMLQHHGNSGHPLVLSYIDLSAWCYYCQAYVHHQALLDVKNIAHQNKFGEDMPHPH

HCCLM3 = assay: Cytotoxicity against human HCCLM3 cells assessed as inhibition of cell viability incubated for 24 hrs by CCK8 assay; type: functional, cell-based; details: HCCLM3, 24 h
Histone deacetylase 9 = Histone deacetylase 9 (Homo sapiens, UniProt Q9UKV0); assay: Inhibition of HDAC9 (unknown origin) preincubated for 10 mins followed by substrate addition by fluorescence based assay
RPMI-8226 [2] = assay: Upregulation of Ac-alpha-tubulin expression in human RPMI-8226 cells at 0.1 uM incubated for 24 hrs by Western blot analysis; type: functional, cell-based
RPMI-8226 [3] = assay: Upregulation of Ac-H3 expression in human RPMI-8226 cells at 0.1 to 0.5 uM incubated for 24 hrs by Western blot analysis; type: functional, cell-based; details: dose 0.1-0.5 µM
[4] = biological target: T2, Protein deacetylase HDAC6 (Homo sapiens) (UniProt Q9UBN7); assay: Inhibition of HDAC6 in human RPMI-8226 cells assessed as increase in Ac-H3 expression at 2.5 uM incubated for 24 hrs by Western blot analysis; type: cell-based
T2 sequence (whole entry): T1 sequence (Q9UBN7 whole entry)

RPMI-8226 [5] = assay: Induction of cell cycle arrest at G2 phase in human RPMI-8226 cells at 0.1 uM incubated for 24 hrs by PI staining based flow cytometry (reference value: 18.3 %); type: functional
RPMI-8226 [6] = assay: Induction of cell cycle arrest at S phase in human RPMI-8226 cells at 2.5 uM incubated for 24 hrs by PI staining based flow cytometry (reference value: 58.5 %); type: functional
RPMI-8226 [7] = assay: Induction of apoptosis in human RPMI-8226 cells assessed as necrotic cells at 2.5 uM incubated for 24 hrs by Annexin V-FITC/PI staining based flow cytometry (reference value: 0.90 %); type: functional
RPMI-8226 [8] = assay: Induction of apoptosis in human RPMI-8226 cells assessed as decrease in […] expression at 0.1 to 2.5 uM incubated for 24 hrs by Western blot analysis; type: functional, cell-based; details: dose 0.1-2.5 µM
RPMI-8226 [9] = assay: Induction of apoptosis in human RPMI-8226 cells assessed as increase in Bax expression at 0.1 to 2.5 uM incubated for 24 hrs by Western blot analysis; type: functional, cell-based; details: dose 0.1-2.5 µM
[10] = Volume of distribution at steady state in mouse at 1 mg/kg, iv; type: ADME, organism-based; details: in vivo, read-out: Vdss
[11] = Tmax in mouse at 10 mg/kg, po; type: ADME, organism-based; details: in vivo
[12] = Half life in mouse at 10 mg/kg, po; type: ADME, organism-based; details: in vivo
[13] = Oral bioavailability in mouse at 10 mg/kg; type: ADME, organism-based; details: in vivo
RPMI-8226 [14] = assay: Antitumor activity against human RPMI-8226 cells xenografted in Balb/c nude mouse assessed as reduction in tumor volume at 10 to 40 mg/kg, po qd for 21 days administered consecutively; type: functional, organism-based; details: dose 10-40 mg/kg, time 21.0 day
[15] = Toxicity in Balb/c nude mouse xenografted with human RPMI-8226 cells assessed as body weight loss at 10 to 40 mg/kg, po qd for 21 days administered consecutively; type: organism-based; details: in vivo, 504 h, dose 10-40 mg/kg, time 21 day
[16] = Toxicity in Balb/c nude mouse xenografted with human RPMI-8226 cells assessed as adverse effect on spleen at 10 to 40 mg/kg, po qd for 21 days administered consecutively by H and E staining based analysis; type: organism-based; details: in vivo, 504 h, dose 10-40 mg/kg, time 21 day
[17] = Toxicity in Balb/c nude mouse xenografted with human RPMI-8226 cells assessed as adverse effect on serum ALT level at 10 to 40 mg/kg, po qd for 21 days administered consecutively; type: organism-based; details: in vivo, 504 h, dose 10-40 mg/kg, time 21 day

Chain of Histone deacetylase 9 (Q9UKV0 whole entry): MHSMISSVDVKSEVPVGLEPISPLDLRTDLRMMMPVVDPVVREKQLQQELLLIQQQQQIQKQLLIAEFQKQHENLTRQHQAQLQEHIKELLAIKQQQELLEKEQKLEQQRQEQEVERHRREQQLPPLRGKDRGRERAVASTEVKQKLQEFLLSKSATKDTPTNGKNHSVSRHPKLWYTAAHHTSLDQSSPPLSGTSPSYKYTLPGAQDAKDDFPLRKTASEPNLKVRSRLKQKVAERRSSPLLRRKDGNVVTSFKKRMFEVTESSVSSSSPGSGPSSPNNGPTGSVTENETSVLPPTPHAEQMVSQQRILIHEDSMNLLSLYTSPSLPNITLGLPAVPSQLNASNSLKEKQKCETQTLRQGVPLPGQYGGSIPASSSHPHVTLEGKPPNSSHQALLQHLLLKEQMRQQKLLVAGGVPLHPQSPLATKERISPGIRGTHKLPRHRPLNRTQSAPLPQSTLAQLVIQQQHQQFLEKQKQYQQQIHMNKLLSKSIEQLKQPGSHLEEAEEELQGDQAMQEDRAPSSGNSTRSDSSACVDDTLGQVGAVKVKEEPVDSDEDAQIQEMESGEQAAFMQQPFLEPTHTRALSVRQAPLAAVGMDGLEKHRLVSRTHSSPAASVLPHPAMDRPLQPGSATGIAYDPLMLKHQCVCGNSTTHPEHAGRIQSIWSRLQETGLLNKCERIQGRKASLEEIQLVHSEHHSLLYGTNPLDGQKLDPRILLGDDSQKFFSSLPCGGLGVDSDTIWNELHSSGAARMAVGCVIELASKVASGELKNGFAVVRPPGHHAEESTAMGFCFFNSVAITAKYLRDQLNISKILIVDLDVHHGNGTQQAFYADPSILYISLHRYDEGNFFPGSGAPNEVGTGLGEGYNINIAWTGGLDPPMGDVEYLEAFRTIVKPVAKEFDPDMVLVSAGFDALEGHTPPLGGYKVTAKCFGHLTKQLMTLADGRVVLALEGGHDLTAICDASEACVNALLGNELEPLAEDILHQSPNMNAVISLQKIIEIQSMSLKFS

## Cn1c([C@@H](Cc2ccccc2)NCc2ccccc2)nc2cc(C(=O)NO)ccc21
[1]
  pIC50: 8.33
HCCLM3
  pIC50: < 4.30
Histone deacetylase 9
  pIC50: 5.72
RPMI-8226 [2]
  Activity: inactive
RPMI-8226 [3]
  Activity: inactive
[4]
  inhibition: Active
RPMI-8226 [5]
  Activity: 21.1%
RPMI-8226 [6]
  Activity: 39.8%
RPMI-8226 [7]
  Activity: 0.26%
RPMI-8226 [8]
  Activity: Active
RPMI-8226 [9]
  Activity: Active
[10]
  Vd: 2.29 L/kg
[11]
  Tmax: 20 min
[12]
  half-life: 20 min
[13]
  bioavailability: 4.6%
RPMI-8226 [14]
  Activity: Active
[15]
  Activity: Non-Toxic
[16]
  Activity: Non-Toxic
[17]
  Activity: Non-Toxic
